Earlier results on 3 compounds are cited in patent US20180243282A1, “Preparation and Use of Combination Enzyme and Gastrointestinal Modulator Delivery Systems” (Curemark, LLC, priority 2010, published 2018).

For data set [1] the following is noted: in vivo.
The conditions of data set [2]: in vivo. This is another data set of the same source.
The conditions of data set [3]: acidic conditions in the stomach.

With `CN/C(=N/CCSCc1nc[nH]c1C)NC#N` [cimetidine], the clearance by hemodialysis entry in data set [1] is reported as “cleared by hemodialysis”.
In the case of Bismuth, in data set [2], the excretion entry is “excreted in the feces” and the systemic absorption entry was “largely unabsorbed”.
For sucralfate, in data set [2], the systemic absorption result was “lack of systemic absorption” and the systemic toxicity result is given as “no systemic toxicity”. Further, in data set [3], the protective coating lasts entry was “up to 6 hours”.
